A melting point compilation (Tetko et al.; mined from patent text by program, amines drawn as free bases though some values may be those of a salt)

Compound	melting point [°C]
CCCCNC(=O)OC1c2ccccc2C(=O)N1c1ccc2ccc(Cl)nc2n1 (configuration not stated)	152
CCOC(=O)c1sc(C)nc1S	62 to 66
NNC(=O)N(NC(=O)CSC(=O)c1ccccc1)C(=O)CSC(=O)c1ccccc1	184 to 190
S=C(Cl)c1cc(C(Cl)(Cl)Cl)c(Cl)cc1Cl	79 to 81
CCCCCCCCCCCC(=O)N[C@@H](CC(C)C)C(=O)N[C@@H](C(C)C)[C@@H](O)c1c(-c2ccccc2)c1=O	123 to 127
Cc1nc2cc3c(cc2[nH]1)C(C)(C)CC(=O)N3	290 to 294
CCOC(=O)c1cnn2c(-c3ccsc3)ccnc12	129 to 130
CCCC(=O)C1=C(n2cccn2)CC(C2CCCSC2)CC1=O (configuration not stated)	127
Cc1ccccc1C(=C1CN(C(c2ccccc2)c2ccccc2)C1)S(C)(=O)=O	218
O=[N+]([O-])c1ccc(Oc2ccc(Cl)cc2Cl)cc1Oc1ccc(Cl)cc1Cl	91 to 93
COC(=O)CCSCC(=O)c1ccc2c(c1)CC(=O)N2	106 to 108
C/C(=C\c1ccc(OCCN2CCOCC2)cc1)c1ccc2c(c1)SC(C)(C)S2	90 to 91
COc1cc(C=O)c(Br)c(Cl)c1OC	118 to 119
CC(C)(C)c1nnc(-c2nn(-c3ccc(F)cc3F)c3c2C2CCC3C2)s1 (configuration not stated)	109 to 111
COc1ccc(CC(=O)NCCc2ccc(N)cc2)cc1	112 to 114
Cc1ccc(Oc2ccccc2-n2cc(C(=O)O)cn2)c(O)c1	219 to 221
COC(=O)c1ccc2c(c1)C(=O)c1ccc(C(=O)OC)cc1C2=O	260
CC12CCC3C(CC=C4CCCCC43C)C1CC(F)C2=O (configuration not stated)	228 to 230
CNCNc1cc(C(N)=O)ccc1C(C)(C)C	143 to 144
O=C(O)COCCc1ccccc1	46 to 48
CCC12CCC3c4ccc(OC)cc4CCC3C1CCC2O (configuration not stated)	126 to 130
N#CC1CN1C(=O)NC(=O)c1ccco1 (configuration not stated)	148 to 150
CCC(CC)(CC(=O)Nc1cccc(/C=C/c2cccc(COCCCCc3ccc(C)cc3)n2)c1)C(=O)O	114 to 116
O=C(Nc1ccc(C2=CCN(Cc3ccccc3)CC2)cc1)c1ccccc1-c1ccccc1	142
Cc1nn(-c2c(Cl)cc(C(F)(F)F)cc2Cl)nc1CN(C)C	67 to 68
Cc1nnc2n1-c1ccc(C#CCn3c(C)nc4ccccc4c3=O)cc1C(c1ccccc1F)=NC2	241 to 244
CN1CCCc2cc(Cc3cnc(N)nc3N)ccc21	190 to 191
CCOC(=O)c1cnc2c(cnn2-c2ccccc2)c1Cl	89 to 91
COc1ccc(COc2c(OC)cc(C=C(C(=O)OC(C)C)P(=O)(OC)OC)cc2OC)cc1	68 to 69

Further lines, results first:

melting point [°C]	Compound
204	O=C1CC(c2ccccc2)c2cc(C(=O)c3ccc(Cl)cc3)ccc2N1 (configuration not stated)
182 to 184	O=c1c(-c2cccc(C(F)(F)F)c2)c[nH]n1-c1cccc(Cl)c1
202 to 203	COc1cc2c(c(Cl)c1Cl)C(=O)C(c1ccc(Br)cc1)C2 (configuration not stated)
146 to 148	Cn1c(=O)c2c(ncn2Cc2noc(CCl)n2)n(C)c1=O
188 to 190	CCc1nc2c(c3c1[nH]c1ccccc13)C(=O)CC(C)(C)C2
174	Cc1cc(C)n(-c2nnc3cc(Cl)ccc3n2)n1
159 to 161	Cc1ccc(-c2ccc(O)cc2)c(-c2ccc(OCCN3CCCC3)cc2)n1
> 310	Cn1cnnc1SC1=C(c2cc(Cl)ccc2O)C2C=C(C(F)(F)F)C=CC2NC1=O (configuration not stated)
109 to 111	O=C(NCCC(=O)N1CCCCC1)c1ccc(-c2ccc3nnn(Cc4ccc5ncccc5c4)c3n2)cc1F
241 to 243	O=C1CCC(N2C(=O)c3cccc(CNC(=O)Nc4ccc(Cl)c(Cl)c4)c3C2=O)C(=O)N1 (configuration not stated)
172 to 174	CCN(CC)CCNC(=O)c1ccc(-c2n[nH]c3c2Cc2ccccc2-3)cc1
142 to 144	CC1(C(O)(C=Cc2ccc(Cl)cc2Cl)Cn2ccnc2)COCOC1 (configuration not stated)
202	Cc1ccc(C(=O)N[C@H]2CC[C@H](CCN3CCC(c4cccc5c4CCO5)CC3)CC2)cn1
84 to 86	CCOC(=O)c1cc(C)c(Cl)nc1C(=O)OCC
140 to 141	NC(=O)CCCON1CCNC1=Nc1c(Cl)cccc1Cl
166 to 168	CC(=O)NC[C@H]1CN(c2ccc(N3CCC(F)(CI)CC3)c(F)c2)C(=O)O1
221	N#Cc1c(N2CCN(C(=O)c3ccco3)CC2)c2cc(Cl)ccc2n(Cc2ccccc2)c1=O
272 to 275	O=C(O)c1cc2ccsc2nc1C(=O)O
187 to 189	CCOC(=O)c1cn2c(cc(OC(C)C)c3ccc(Cl)cc32)n1
118 to 119	Fc1ccccc1CC1CCN(C2CC=C(c3ccc4c(c3)OCO4)CC2)CC1 (configuration not stated)
129 to 131	CC(C)(Oc1ccc(COCc2ccc3cn(-c4ccc(C(F)(F)F)cc4)nc3c2)cc1)C(=O)O
171 to 173	C=CCn1c2ccc(OC)cc2c2c3c(c(-c4ccccc4Cl)cc21)C(=O)N(Cc1ccc(OC)cc1OC)C3=O

melting point [°C]	Compound
196 to 198	CCN(CC)C(=O)Nc1c(C(=O)c2ccccc2)[nH]c2cc(Cl)ccc12
94 to 96	COC(=O)c1cc(C(C)=O)cs1
60 to 63	C=CS(=O)(=O)CCCS(=O)(=O)C=C
195 to 196	COc1c(N2CC(C)C(C)(N)C2)c(F)cc2c(=O)c(C(=O)O)cn(C3CC3F)c12 (configuration not stated)
> 268	Oc1ccc(Nc2ncc3ncc(-c4ccc(O)cc4)cc3n2)cc1
219 to 221	CCNC(=O)N(C)Cc1cccc2c1C(=O)N(C1CCC(=O)NC1=O)C2=O (configuration not stated)
177 to 178	CC=CCn1c(C(=O)c2cc(C)cc(C#N)c2)c(C(C)C)c(=O)[nH]c1=O
146 to 147	CCC(C)(CC)C(=O)C=C(P(=O)(O)O)P(=O)(O)O
49.5 to 50.5	CC(=O)c1ccc2c(c1)CCCS2
256 to 260	CC(C)(C)c1cc(-c2c(C(=O)O)c(=O)oc3cc4c(cc23)CCC4)cc(C(C)(C)C)c1O
89 to 90	FC(F)(F)c1nc(N=C(Cl)c2cccc(Cl)c2)sc1Cl
35 to 38	CCOC(=O)c1cc(=O)cc(C)o1
180 to 183	[N-]=[N+]=NC1CC(n2cnc3c(N4CCCC4)nc(N)nc32)OC1CO (configuration not stated)
164 to 168	COc1ccc(NC(=O)c2ccc(C(C)(C)C#N)cc2)cc1
111	CCc1nc2ccc(Br)cc2c2ccc(F)cc12
176 to 181	O=C(O)CC(CC(=O)O)c1cccc2oc3c(c12)CCCC3
144	OC1(Cn2cncn2)C(=Cc2ccc(Cl)cc2)CCCC1C1CCCCC1 (configuration not stated)
80 to 81	CC(C)(C)[Si](OCc1ccc([N+](=O)[O-])cc1)(c1ccccc1)c1ccccc1
178 to 181	O=C(c1ccc([N+](=O)[O-])o1)N1CCN(CC(O)COc2cccc3[nH]c4ccccc4c23)CC1 (configuration not stated)
212 to 213	COC(=O)C1=C(C)NC(C)=C(C(=O)OC)N1c1cccc(N)c1
87 to 90	COc1cc(NC(=O)CCCCCN2CC(C)OC(C)C2)c2nccc(C)c2c1 (configuration not stated)
